Source: publication PMC11477294, “In Vitro Profiling of the Antiviral Peptide TAT-I24” (International Journal of Molecular Sciences, 2024)
Where a SMILES comes first, the peptide text is derived from it.

Assays:
cells = details: not associated with cell toxicity; cited from earlier work
[1] = target: dsDNA (pcDNA3.1 (+) plasmid); experiment: DNA binding assay (SYBR Gold fluorescence reduction); details: reduction of fluorescence of SYBR Gold bound to pcDNA3.1 (+) plasmid (100 ng); non-linear regression; n = 8
Experimental: DNA-binding of the peptides was analyzed using an assay based on the reduction of the fluorescence of DNA-bound SYBR^TM Gold dye in the presence of peptide. […] The selectivity index (SI), that is, the ratio between CC50 and IC50, was calculated for all peptides tested in HEK293 cells, except for C22del and C22del_cyc, for which the CC50 could not be calculated from the results of the cell viability assay (Table 1, Supplementary Figure S1).
DNA binding was detected using an assay based on reduction of fluorescence emitted by SYBR^TM Gold (ThermoFisher, Darmstadt, Germany) bound to dsDNA in the presence of peptides using the pcDNA3.1 (+) plasmid (100 ng), as described previously.

[2] = Oligomerization/aggregation by SDS-PAGE with Coomassie stain; format: physicochemical; details: 48 h at 37 °C in PBS or PBS with 10% FCS
Experimental: For determination of peptide stability, 20 µg peptide was added to 50 µL PBS or PBS with 10% FCS and incubated for 48 h at 37 °C or stored at −20 °C. For non-reducing conditions, 4 µL peptide solution was mixed with 1 µL H2O and 5 µL Novex™ Tricine SDS Sample Buffer (2×) (ThermoFisher, Darmstadt, Germany). For reducing conditions, 4 µL peptide solution was mixed with 1 µL NuPAGE™ Sample Reducing Agent (10×) (Invitrogen by Thermo Fisher Scientific) and 5 µL Novex™ Tricine SDS Sample Buffer (2×). Samples were then heated to 85 °C for 10 min. A total of 10 µL was then loaded onto each well of 10–20% Novex™ Tricine, 1.0 mm, Mini Protein Gels (Invitrogen/ThermoFisher, Waltham, MA, USA) and run in 1× Novex™ Tricine SDS Running Buffer (Invitrogen/ThermoFisher, Waltham, MA, USA) for 90 min at 100 V. After electrophoresis, gels were fixed with 40% methanol and 10% acetic acid followed by staining with 0.1% Coomassie brilliant blue R250 (Sigma-Aldrich, Schnelldorf, Germany) in 40% methanol and 10% acetic acid for one hour and destaining using fixing solution.

HEK293 cells = experiment: Cell viability assay (CellTiter-Blue) in HEK293 cells; format: cell-based; details: 72 h at 37 °C, 3-fold dilution series starting with 20 µM, triplicate, non-linear regression (curve fit)
Experimental: HEK293 cells were seeded at a density of 2.5 × 10^3 cells/100 µL per well in a 96-well plate (Sarstedt, Germany). In addition, a serial 1:2 dilution of the cell suspension was added to each plate to generate a standard curve. On the next day, cells were treated with serial 1:3 peptide dilutions in triplicate and incubated for 72 h at 37 °C. Then, 20 µL of CellTiter-Blue® Cell Viability Assay (Promega, Mannheim, Germany) was added to each well and incubated at 37 °C for a further 1–2 h. Fluorescence was recorded using a GloMax®-Multi Detection System (Promega, Mannheim, Germany). The percentage of viable cells was calculated from the cell dilution series from each plate by linear regression analysis. The selectivity index was calculated using the following formula: SI = CC50/IC50.
Figure S1. Cell viability assay in HEK293 cells in the presence of peptides. Cells were incubated with 3 -fold dilution series of peptides starting with a concentration of 20 µM for 72 hours and measured using the Cell Titer Blue assay. Curve fitting of % viable cells of untrea ted control was performed using Graph Pad Prism softwar e.
(1 picture or pasted object on this page, not shown here)

[3] = test system: MCMV strain delm157-luc rep; format: cell-based, mouse cytomegalovirus; details: luciferase reporter gene expression in NIH/3T3 cells infected with replication-competent MCMV, MOI 0.5, 72 h post-infection; 1:3 dilution series; non-linear regression; n = 9
Experimental: NIH/3T3 cells were seeded at a density of 2 × 10^4 cells/100 µL per well in a 96-well plate (Sarstedt, Germany) and allowed to attach overnight. On the next day, cells were treated with a 1:3 dilutions series of peptides and, without further pre-incubation, subsequently infected with the MCMV strain delm157-luc rep. The MCMV stock was prepared and quantified as previously described. The virus (MOI 0.5 for luc assays; for other assays, see the specific descriptions) was adsorbed to cells with the aid of centrifugal enhancement twice at 800× g for 15 min at room temperature and incubated at 37 °C for the indicated times. For the luciferase assays, the infected cells were lysed 72 h post-infection using 20 µL Cell Culture Lysis Reagent (Promega, Mannheim, Germany). From the lysates, 10 µL was transferred to white 96-well plates, and luciferase was recorded using a Luciferase Assay System and a GloMax®-Multi Detection System (Promega, Mannheim, Germany).

[4] = test system: baculovirus expressing luciferase under the control of the CMV promoter; format: cell-based; details: luciferase reporter gene expression in HEK293 cells transduced with baculovirus-luc, MOI 5, 24 h post-infection; 1:3 peptide dilution series; non-linear regression; n = 8
Experimental: A baculovirus expressing luciferase under the control of the CMV promoter has been described previously. HEK293 cells were seeded at a density of 2 × 10^4 cells/100 µL per well in 96-well plates (Sarstedt, Germany). On the next day, cells were treated with a 1:3 dilution series of peptides and, without further pre-incubation, subsequently infected with baculovirus–luc at a multiplicity of infection (MOI) of 5. Cells were lysed 24 h post-infection using 20 µL Cell Culture Lysis Reagent (Promega, Mannheim, Germany). From the lysates, 10 µL was transferred to white 96-well plates, and luciferase was recorded using a luciferase assay system and a GloMax®-Multi Detection System (Promega, Mannheim, Germany).

In the case of `CC(C)C[C@H](NC(=O)[C@H](CS)NC(=O)[C@H](CCC(N)=O)NC(=O)[C@@H]1CCCN1C(=O)[C@@H]1CCCN1C(=O)[C@H](CCCNC(=N)N)NC(=O)[C@H](CCCNC(=N)N)NC(=O)[C@H](CCCNC(=N)N)NC(=O)[C@H](CCC(N)=O)NC(=O)[C@H](CCCNC(=N)N)NC(=O)[C@H](CCCNC(=N)N)NC(=O)[C@H](CCCCN)NC(=O)[C@H](CCCCN)NC(=O)[C@H](CCCNC(=N)N)NC(=O)CN)C(=O)N[C@@H](C)C(=O)N[C@@H](Cc1ccccc1)C(=O)N[C@@H](Cc1ccc(O)cc1)C(=O)N[C@@H](C)C(=O)N[C@@H](CS)C(=O)N[C@@H](Cc1ccccc1)C(=O)N[C@@H](CS)C(=O)O` [TAT-I24] (H-GRKKRRQRRRPPQCLAFYACFC-OH), the “concentration with morphological changes such as cell aggregation” value (cells) is listed as > 10 µM, the IC50 [1] is listed as 1010 nM and the “oligomer formation, SDS-PAGE under reducing conditions” value ([2]; 10–20% Tricine gel, Coomassie Brilliant Blue stain) is listed as “additional weak higher molecular weight smear around 45 kDa”. The “oligomer formation, SDS-PAGE under non-reducing conditions” value ([2]; SDS loading buffer without reducing agent, Coomassie stain) was “only faint bands of monomers”, the “HEK293 CC50” value (HEK293 cells) was 124 µM and the IC50 [3] was 910 nM. The IC50 [4] was 50 nM.
